Like-named read-outs stand apart in the source and are kept apart here.
What was measured:
[1] = type: physicochemical; settings: for chemical stability of the component in buffers / degradation of the component at pH 2 and 10: 1% w/w purified loline extract, 0.2M buffers; for chemical stability of the component in buffers: except pH 2 and 10; for degradation of the component at pH 2 and 10: starting at 24 h
Description: 1% w/w solutions of purified loline extract at various pH and 0.2M buffers were used in this investigation. The solutions were maintained at 54° C. (±1° C.) and 70° C. (±1° C.) and pH remained at the target pH (±0.2 pH units). Samples were taken periodically over a 2-3 week period and analysed by GC-FID to determine NFL strength.

[2] = type: physicochemical

CN(C=O)C1C2CN3CCC(O2)[C@H]13 (stereo partly shown) [NFL, N-formylloline]
stability on increasing or decreasing pH from pH 4 ([1]; 70° C.): significant decrease in stability | time after which the stability of NFL plateaus ([1]; 70° C., pH 2.6): approximately 100 hours | stability (degradation of NFL to loline) ([1]; 70° C., pH 4, acetic acid derived buffer, over 170 hours): greatest stability | stability (degradation of NFL to loline) ([1]; 70° C., pH 4, citric acid buffer): lower stability | overall degradation rates ([2]; 50° C. compared with 70° C.): reduced | conversion of NFL to loline, citric acid based system versus acetic acid derived buffer ([2]; both 50° C. and 70° C.): higher degradation

CC(=O)NC1C2CN3CCC(O2)C13 (stereo not shown) [NANL, N-acetylnorloline]
chemical stability of the component in buffers [1]: chemically stable | degradation of the component at pH 2 and 10 [1]: small degradation

CC(=O)N(C)C1C2CN3CCC(O2)C13 (stereo not shown) [NAL, N-acetylloline]
chemical stability of the component in buffers [1]: chemically stable | degradation of the component at pH 2 and 10 [1]: small degradation
